Laboratory results reported in PubChem BioAssay AID248 (DTP/NCI, 2004).
Several values for one entry are separate records, joined by “and”; a condition that tells them apart may be missing. Equal values may be shown once. Inconclusive results and toxic doses are left out.

Test system: L1210 leukemia ip in BDF1 mice, survival T/C
Assay: NCI In Vivo Anticancer Drug Screen. Data for tumor model L1210 Leukemia (intraperitoneal) in B6D2F1 (BDF1) mice
Details: endpoint: mean survival time, higher = longer survival
Summary of the method: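 Mice bearing the transplanted tumor received compound or vehicle. Survival of the treated group was divided by that of the vehicle-treated control group to give the ratio.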

[1] = dose: 100.0 mg/kg/injection, schedule: Q01DX001 (ip), vehicle: saline with Tween-80
[2] = dose: 5.0 mg/kg/injection, schedule: Q01DX001 (ip), vehicle: saline
[3] = dose: 10.0 mg/kg/injection, schedule: Q01DX001 (ip), vehicle: saline
[4] = dose: 20.0 mg/kg/injection, schedule: Q01DX001 (ip), vehicle: saline
[5] = dose: 100.0 mg/kg/injection, schedule: Q04DX003 (ip), vehicle: saline with Tween-80
[6] = dose: 200.0 mg/kg/injection, schedule: Q04DX003 (ip), vehicle: saline with Tween-80
[7] = dose: 400.0 mg/kg/injection, schedule: Q04DX003 (ip), vehicle: saline with Tween-80

Structure (SMILES): COc1cccc(-n2cccc2)c1
- T/C (dose: 100.0 mg/kg/injection, schedule: Q01DX001 (ip), vehicle: other): 103 % of control
- T/C (dose: 200.0 mg/kg/injection, schedule: Q01DX001 (ip), vehicle: other): 105 % of control
- T/C (dose: 400.0 mg/kg/injection, schedule: Q01DX001 (ip), vehicle: other): 108 % of control

Structure (SMILES): O=[N+]([O-])c1cccc2cn[nH]c12
- T/C (dose: 25.0 mg/kg/injection, schedule: Q04DX002 (ip), vehicle: saline with Tween-80): 100 % of control
- T/C (dose: 50.0 mg/kg/injection, schedule: Q04DX002 (ip), vehicle: saline with Tween-80): 110 % of control
- T/C (dose: 100.0 mg/kg/injection, schedule: Q04DX002 (ip), vehicle: saline with Tween-80): 107 % of control and 89 % of control

Structure (SMILES): NCc1ccc(OCc2nc(N)nc(N)c2-c2ccc(Cl)cc2)cc1
- T/C (dose: 25.0 mg/kg/injection, schedule: Q01DX001 (ip), vehicle: saline with Tween-80): 97 % of control
- T/C (dose: 50.0 mg/kg/injection, schedule: Q01DX001 (ip), vehicle: saline with Tween-80): 87 % of control
- T/C [1]: 95 % of control and 96 % of control

Structure (SMILES): CCOc1ccc(NC(=O)OCCCl)cc1
- T/C (dose: 75.0 mg/kg/injection, schedule: Q04DX002 (ip), vehicle: Klucel (hydroxypropylcellulose) (HPC)): 105 % of control
- T/C (dose: 150.0 mg/kg/injection, schedule: Q04DX002 (ip), vehicle: Klucel (hydroxypropylcellulose) (HPC)): 105 % of control
- T/C (dose: 300.0 mg/kg/injection, schedule: Q04DX002 (ip), vehicle: Klucel (hydroxypropylcellulose) (HPC)): 101 % of control

Structure (SMILES): CC(C)CCCC(=O)CCCCCCC(=O)CCN(O)C(=O)C(N)CO (centres undefined)
- T/C (dose: 12.5 mg/kg/injection, schedule: Q01DX009 (ip), vehicle: acetone): 93 % of control
- T/C (dose: 25.0 mg/kg/injection, schedule: Q01DX009 (ip), vehicle: acetone): 102 % of control
- T/C (dose: 25.0 mg/kg/injection, schedule: Q04DX003 (ip), vehicle: acetone): 95 % of control
- T/C (dose: 50.0 mg/kg/injection, schedule: Q04DX003 (ip), vehicle: acetone): 103 % of control
- T/C (dose: 100.0 mg/kg/injection, schedule: Q01DX001 (ip), vehicle: acetone): 97 % of control

Structure (SMILES): OC1(c2ccccc2)C2=CC(c3ccccc3)=C(c3ccccc3)CC2C(c2ccccc2)C1c1ccccc1 (centres undefined)
- T/C [1]: 100 % of control
- T/C (dose: 200.0 mg/kg/injection, schedule: Q01DX001 (ip), vehicle: saline with Tween-80): 91 % of control
- T/C (dose: 400.0 mg/kg/injection, schedule: Q01DX001 (ip), vehicle: saline with Tween-80): 96 % of control

Structure (SMILES): C=C[P+](c1ccccc1)(c1ccccc1)c1ccccc1
- T/C (dose: 0.78 mg/kg/injection, schedule: Q01DX009 (ip), vehicle: saline): 124 % of control
- T/C (dose: 1.56 mg/kg/injection, schedule: Q01DX009 (ip), vehicle: saline): 104 % of control
- T/C (dose: 1.56 mg/kg/injection, schedule: Q04DX003 (ip), vehicle: saline): 108 % of control
- T/C (dose: 3.12 mg/kg/injection, schedule: Q01DX009 (ip), vehicle: saline): 93 % of control
- T/C (dose: 3.12 mg/kg/injection, schedule: Q04DX003 (ip), vehicle: saline): 112 % of control
- T/C [2]: 115 % of control
- T/C (dose: 8.88 mg/kg/injection, schedule: Q01DX001 (ip), vehicle: saline): 102 % of control and 104 % of control
- T/C [3]: 115 % of control
- T/C (dose: 10.0 mg/kg/injection, schedule: Q04DX003 (ip), vehicle: saline): 98 % of control
- T/C (dose: 13.34 mg/kg/injection, schedule: Q01DX001 (ip), vehicle: saline): 102 % of control and 104 % of control
- T/C [4]: 102 % of control and 104 % of control
- T/C (dose: 20.0 mg/kg/injection, schedule: Q04DX003 (ip), vehicle: saline): 92 % of control
- T/C (dose: 30.0 mg/kg/injection, schedule: Q01DX001 (ip), vehicle: saline): 101 % of control and 105 % of control
- T/C (dose: 40.0 mg/kg/injection, schedule: Q01DX001 (ip), vehicle: saline): 97 % of control

Structure (SMILES): O=C(O)C1CCC2CCCCC2[N-]1.O=C(O)C1CCC2CCCCC2[N-]1.[Cu+2] (centres undefined)
- T/C (dose: 6.25 mg/kg/injection, schedule: Q01DX009 (ip), vehicle: saline): 97 % of control
- T/C (dose: 6.25 mg/kg/injection, schedule: Q04DX003 (ip), vehicle: saline): 105 % of control
- T/C (dose: 12.5 mg/kg/injection, schedule: Q01DX009 (ip), vehicle: saline): 90 % of control
- T/C (dose: 12.5 mg/kg/injection, schedule: Q04DX003 (ip), vehicle: saline): 100 % of control
- T/C (dose: 25.0 mg/kg/injection, schedule: Q01DX009 (ip), vehicle: saline): 97 % of control
- T/C (dose: 25.0 mg/kg/injection, schedule: Q04DX003 (ip), vehicle: saline): 94 % of control

Structure (SMILES): CC(C(O)c1ccc(F)cc1)C(O)(C(F)(F)F)C(F)(F)F (centres undefined)
- T/C [5]: 97 % of control
- T/C [6]: 98 % of control
- T/C [7]: 86 % of control

Structure (SMILES): C/C(=N\Nc1ccccc1)C(C)C
- T/C (dose: 75.0 mg/kg/injection, schedule: Q04DX003 (ip), vehicle: Klucel (hydroxypropylcellulose) (HPC)): 118 % of control
- T/C (dose: 150.0 mg/kg/injection, schedule: Q04DX003 (ip), vehicle: Klucel (hydroxypropylcellulose) (HPC)): 94 % of control
- T/C (dose: 300.0 mg/kg/injection, schedule: Q04DX003 (ip), vehicle: Klucel (hydroxypropylcellulose) (HPC)): 96 % of control

Structure (SMILES): CC(=O)OC1C(OC(C)=O)C(OS(=O)(=O)c2ccc(C)cc2)C(OC(C)=O)C(OS(=O)(=O)c2ccc(C)cc2)C1OC(C)=O (centres undefined)
- T/C [5]: 97 % of control
- T/C [6]: 92 % of control
- T/C [7]: 95 % of control

Structure (SMILES): COc1cc(Oc2c(OC)cc(N)cc2OC)cc(OC)c1OC
- T/C [5]: 97 % of control
- T/C [6]: 95 % of control
- T/C [7]: 95 % of control

Structure (SMILES): OC1(c2ccccc2)CCC1
- T/C (dose: 62.0 mg/kg/injection, schedule: Q01DX009 (ip), vehicle: saline with Tween-80): 91 % of control
- T/C (dose: 125.0 mg/kg/injection, schedule: Q01DX009 (ip), vehicle: saline with Tween-80): 99 % of control
- T/C (dose: 250.0 mg/kg/injection, schedule: Q01DX009 (ip), vehicle: saline with Tween-80): 97 % of control

Structure (SMILES): CC(=O)NC1=C(N2CC2C)C(=O)C(NC(C)=O)=C(N2CC2C)C1=O (centres undefined)
- T/C (dose: 0.25 mg/kg/injection, schedule: Q01DX009 (ip), vehicle: saline): 109 % of control
- T/C (dose: 0.31 mg/kg/injection, schedule: Q01DX Z (ip), vehicle: saline): 103 % of control
- T/C (dose: 0.5 mg/kg/injection, schedule: Q01DX009 (ip), vehicle: saline): 103 % of control
- T/C (dose: 0.63 mg/kg/injection, schedule: Q01DX Z (ip), vehicle: saline): 103 % of control
- T/C (dose: 1.0 mg/kg/injection, schedule: Q01DX009 (ip), vehicle: saline): 114 % of control
- T/C (dose: 1.25 mg/kg/injection, schedule: Q01DX Z (ip), vehicle: saline): 106 % of control
- T/C (dose: 2.0 mg/kg/injection, schedule: Q01DX009 (ip), vehicle: saline): 120 % of control
- T/C (dose: 2.5 mg/kg/injection, schedule: Q01DX009 (ip), vehicle: saline): 184 % of control
- T/C [2]: 118 % of control
- T/C (dose: 5.0 mg/kg/injection, schedule: Q01DX009 (ip), vehicle: saline): 108 % of control
- T/C [3]: 171 % of control
- T/C (dose: 10.0 mg/kg/injection, schedule: Q01DX Z (ip), vehicle: saline): 96 % of control and 111 % of control
- T/C [4]: 118 % of control
- T/C (dose: 20.0 mg/kg/injection, schedule: Q01DX009 (ip), vehicle: saline): 111 % of control
- T/C (dose: 20.0 mg/kg/injection, schedule: Q01DX Z (ip), vehicle: saline): 103 % of control
- T/C (dose: 40.0 mg/kg/injection, schedule: Q01DX Z (ip), vehicle: saline): 178 % of control
- T/C (dose: 50.0 mg/kg/injection, schedule: Q01DX009 (ip), vehicle: saline): 100 % of control
- T/C (dose: 75.0 mg/kg/injection, schedule: Q01DX001 (ip), vehicle: saline): 186 % of control
- T/C (dose: 75.0 mg/kg/injection, schedule: Q01DX009 (ip), vehicle: saline): 92 % of control
- T/C (dose: 150.0 mg/kg/injection, schedule: Q01DX001 (ip), vehicle: saline): 112 % of control

Structure (SMILES): CCCCCCCCCCCCCCCCOc1ccccc1C(C)=O
- T/C (dose: 100.0 mg/kg/injection, schedule: Q01DX009 (ip), vehicle: saline with Tween-80): 92 % of control
- T/C [5]: 89 % of control
- T/C (dose: 200.0 mg/kg/injection, schedule: Q01DX009 (ip), vehicle: saline with Tween-80): 96 % of control
- T/C [6]: 98 % of control
- T/C (dose: 400.0 mg/kg/injection, schedule: Q01DX009 (ip), vehicle: saline with Tween-80): 93 % of control
- T/C [7]: 93 % of control

Structure (SMILES): CCCCCCCCCCCCCCCCCC(=O)N/N=C/C(C=C=C(C)C)(CC)CCCC (centres undefined)
- T/C (dose: 100.0 mg/kg/injection, schedule: Q01DX009 (ip), vehicle: Klucel (hydroxypropylcellulose) (HPC)): 101 % of control
- T/C (dose: 200.0 mg/kg/injection, schedule: Q01DX009 (ip), vehicle: Klucel (hydroxypropylcellulose) (HPC)): 96 % of control
- T/C (dose: 400.0 mg/kg/injection, schedule: Q01DX009 (ip), vehicle: Klucel (hydroxypropylcellulose) (HPC)): 96 % of control
